# Results as given in patent publication US10501473B2, “Fused heterocyclic ring compounds and method of treating retinal disease using same” (THE INDUSTRY & ACADEMIC COOPERATION IN CHUNGNAM NATIONAL …, priority 2014, dated 2019).
# Columns and labels:
# [1] = biological target: T1, RIPK1 (receptor-interacting serine/threonine-protein kinase 1) (Homo sapiens (Human), UniProt Q13546); assay: RIPK1 inhibitory activity, autophosphorylation of immuno-precipitated RIPK1 with [32P]γ-ATP; format: biochemical; conditions: compound 100 μM; remaining RIPK1 phosphorylation
# T1 sequence (Q13546 whole entry, species assumed): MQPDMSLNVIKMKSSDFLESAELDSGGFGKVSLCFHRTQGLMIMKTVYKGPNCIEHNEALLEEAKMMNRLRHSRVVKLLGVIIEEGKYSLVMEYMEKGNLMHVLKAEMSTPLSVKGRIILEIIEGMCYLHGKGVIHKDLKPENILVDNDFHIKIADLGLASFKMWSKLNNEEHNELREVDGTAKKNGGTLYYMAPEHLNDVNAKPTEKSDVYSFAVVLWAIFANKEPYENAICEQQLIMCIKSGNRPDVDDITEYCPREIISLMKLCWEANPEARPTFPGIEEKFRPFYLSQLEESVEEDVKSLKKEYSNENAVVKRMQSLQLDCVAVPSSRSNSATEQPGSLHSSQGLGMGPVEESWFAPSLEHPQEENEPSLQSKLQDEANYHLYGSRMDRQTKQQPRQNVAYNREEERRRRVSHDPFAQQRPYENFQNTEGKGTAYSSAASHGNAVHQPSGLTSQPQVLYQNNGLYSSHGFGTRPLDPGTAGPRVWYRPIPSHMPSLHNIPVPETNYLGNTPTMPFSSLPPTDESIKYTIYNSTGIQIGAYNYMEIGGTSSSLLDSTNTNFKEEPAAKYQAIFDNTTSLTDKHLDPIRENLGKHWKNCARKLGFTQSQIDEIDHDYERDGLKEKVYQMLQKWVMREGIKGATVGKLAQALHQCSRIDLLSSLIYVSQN
# Protocol: The following experiment was performed to evaluate RIPK1 (receptor-interacting serine/threonine-protein kinase 1) inhibitory activity of the compounds of examples of the invention.
# (§1) RIPK1 enzyme immuno-precipitated in HEK293 (Human Embryonic Kidney 293) cell lysate was used as kinase. The experiment was performed according to the method described in Cell. 12; 137(6):1112-23(2009). RIPK1 protein was over-expressed in HEK293 cell line, to which lysis buffer (50 mM Tris-Cl [pH 8.0], 150 mM NaCl, 1 mM EDTA, 1% NP-40, 0.4 mM phenylmethylsulfonyl fluoride (PMSF)) was added for cell lysis. Centrifugation was performed at 13,000 rpm for 10 minutes to separate the supernatant. RIPK1 monoclonal antibody (610459, BD Bioscience) and A/G agarose beads (sc-2003, Santa Cruz Biotechnology) were added thereto, followed by immuno-precipitation in a 4° C. rotator for 12 hours.
# The immune complex was washed with lysis buffer twice and then washed with kinase assay buffer (20 mM HEPES [pH7.6], 2 mM DTT, 1 mM NaF, 1 mM Na3Vo4, 20 mM β-glycerophosphate, 20 mM PNPP, 20 mM MgCl2, 20 mM MnCl2, 1 mM Benzamidie, and 1 mM EDTA) lastly. Kinase assay buffer and the compound were added to the RIPK1 immuno-precipitate, followed by reaction in a 24° C. constant-temperature water bath for 15 minutes. Additional reaction was induced for 30 minutes at 30° C. after 100 μM of ATP and 10 μCi[^32P] γ-ATP were added thereto. The reaction mixture was washed with kinase assay buffer once, to which protein loading buffer was added, followed by heating at 100° C. for 3 minutes. The reaction mixture was then loaded on 8% SDS-PAGE gel. Radioactive image of the phosphorylated RIPK1 was detected with FLA-7000 (GE healthcare). The image Quant TL program was used for the quantification.
# [2] = test system: RGC-5 (rat ganglion cell); assay: Retinal nerve protection under oxygen-glucose deprivation (OGD), LDH assay; format: cell-based; conditions: RGC-5, OGD 15 hours, compound 20 μM, DMSO control = 100%
# Protocol: The following experiment was performed to evaluate the protective effect of the compounds of examples of the invention on the retinal nerve under oxygen-glucose deprivation condition.
# The retinal ganglion cell line RGC-5 (rat ganglion cell) was cultured in DMEM (Dulbecco's modified Eagle's medium) supplemented with 10% FBS (fetal bovine serum) and 1% penicillin/streptomycin. The cells were distributed in a 96-well plate at the density of 8×10^3 cells/well, followed by culture in a 37° C., CO2 incubator for 12 hours. The cells were washed with PBS once and the medium was replaced with glucose free DMEM. The cells were treated with either DMSO (0.1%) alone (control) or with the compounds of examples (20 μM) shown in Table 3, followed by culture in an anaerobic incubator (10% H2, 5% CO2, 85% N2, 37° C., chamber (ThermoForma, USA)) for 15 hours to induce cell death.
# The level of cell death was measured by LDH (lactate dehydrogenase, Roche) assay. The LDH assay is a method for measuring the activity of LDH released from the damaged cells into the culture medium. NAD^+ was reduced to NADH and H^+ by LDH, and the bond of tetrazolium salt INT ring was cleaved by diaphorase to form formazan. Absorbance of the formazan was measured at 490 nm by using Victor 3 (PerkinElmer). The absorbance reflects the amount of dead cells.
# The level of the control LDH under oxygen-glucose deprivation condition was regarded as 100%, and the level of LDH in the cell group cultured in normal medium (10% FBS, DMEM) for the same time was regarded as 0%. Based on that, the levels of LDH of the cell groups treated with the compounds of the invention under oxygen-glucose deprivation condition were converted into the relative ratio of cell death. The compounds of examples of the invention were treated to wells, each compound for three wells, and then each experiment was performed in triplicate.
# [3] = biological target: T1, RIPK1 (receptor-interacting serine/threonine-protein kinase 1); assay: IC50 to RIPK1, immuno-precipitated enzyme with [32P]γ-ATP; format: biochemical; conditions: 10-0.05 μM, 100 μM ATP
# Protocol: RIPK1 enzyme immuno-precipitated in HEK293 (Human Embryonic Kidney 293) cell lysate was used as a kinase. The experiment was performed according to the method described in Cell. 12; 137(6):1112-23(2009).
# as §1, with “RIPK1” for “RIPK1 enzyme immuno-precipitated in HEK293 (Human Embryonic Kidney 293) cell lysate was used as kinase. The experiment was performed according to the method described in Cell. 12; 137(6):1112-23(2009). RIPK1”
# The compounds of examples of the invention were diluted at the different concentrations of 10 μM˜0.05 μM (10, 5, 1, 0.5, 0.1, 0.05 uM) and mixed with the immuno-precipitated RIPK1 enzyme, followed by reaction in a 24° C. constant-temperature water bath for 15 minutes. Additional reaction was induced for 30 minutes at 30° C. after 100 μM of ATP and 10 μCi[^32P] γ-ATP were added thereto. The reaction mixture was washed with buffer once, to which protein loading buffer was added, followed by heating at 100° C. for 3 minutes. The reaction mixture was then loaded on 8% SDS-PAGE gel. Radioactive image of the phosphorylated RIPK1 was detected with FLA-7000 (GE healthcare). The image Quant TL program was used for the quantification. Based on the results, IC50 of the compound was calculated by using sigmaplot 10.0 program.
# [4] = test system: RGC-5 (rat ganglion cell-5); assay: Retinal neuron protection under necroptosis inducing (TCZ; TNFα+cycloheximide+zVAD) condition, LDH assay; format: cell-based; conditions: RGC-5, TCZ 15 hours, compound 20 μM, DMSO control = 100%
# Protocol: The following experiment was performed to evaluate the retinal neuron protection effect of the compounds of the invention under necroptosis inducing condition.
# The retinal ganglion cell line RGC-5 (rat ganglion cell-5) was cultured in DMEM (Dulbecco's modified Eagle's medium) supplemented with 10% FBS (fetal bovine serum) and 1% penicillin/streptomycin. The cells were distributed in a 96-well plate at the density of 8×10^3 cells/well, followed by culture in a 37° C., CO2 incubator for 12 hours. The medium supplemented with TNFα (10 ng/ml), cycloheximide (10 μg/ml), and zVAD (10 μM) (TCZ) was treated with DMSO (0.1%) alone (control) or with the compounds of the invention (20 μM), followed by additional culture in a 37° C., CO2 incubator for 15 hours to induce cell death.
# The level of cell death was measured by LDH (lactate dehydrogenase, Roche) assay. The level of the control LDH under TCZ condition was regarded as 100%, and the level of LDH in the cell group cultured in normal medium (10% FBS, DMEM) for the same time was used for the measurement of the relative rate of cell death. The compounds of examples of the invention were treated to wells, each compound for three wells, and then each experiment was performed in triplicate.
Structure (SMILES),activity at 100 µM [1] [%],Death of retinal nerve cell (%) [2] [%],IC50 [3] [nM],Death of retinal nerve cell (%) [4] [%]
"O=C(c1cc2c(-c3ccc(F)cc3)ccnc2s1)N1CCOCC1 [Example 4, (4-(4-fluorophenyl)thieno[2,3-b]pyridine-2-yl)(morpholino)methanone]",3 ± 1.4,57.8 ± 8.9,1120,–
"O=C(c1cc2c(-c3cccs3)cccc2s1)N1CCOCC1 [Example 74, morpholino(4-(thiophene-2-yl)benzo[b]thiophene-2-yl)methanone]",4,51.4 ± 10.3,65.6,–
"O=C(c1cc2c(-c3ccc(F)cc3)cnc(Cl)c2s1)N1CCOCC1 [Example 5, (7-chloro-4-(4-fluorophenyl)thieno[2,3-c]pyridine-2-yl)(morpholino)methanone]",85.1 ± 24.7,62.1 ± 3.7,–,57.6 ± 19.2
"Cc1ccc2[nH]c(C(=O)N3CCOCC3)nc2c1 [Example 13, (5-methyl-1H-benzo[d]imidazole-2-yl)(morpholino)methanone]",83.4 ± 16.1,69.6 ± 2.0,–,71.2 ± 7.0
"COc1ccc2cc(C(=O)N3CCOCC3)sc2c1 [Example 19, (6-methoxybenzo[b]thiophene-2-yl)(morpholino)methanone]",81 ± 26.9,70.9 ± 9.7,–,71.6 ± 9.1
"O=C(c1cc2cc(Cl)ccc2[nH]1)N1CCOCC1 [Example 12, (5-chloro-1H-indole-2-yl)(morpholino)methanone]",60,35.7 ± 0.1,–,50.5 ± 7.4
"Cc1ccc2cc(C(=O)N3CCOCC3)sc2c1C [Example 18, (6,7-dimethylbenzo[b]thiophene-2-yl)(morpholino)methanone]",76.5 ± 12,37.0 ± 1.7,–,74.6 ± 8.2
"O=C(c1cc2cccc(Br)c2s1)N1CCOCC1 [Example 29, (7-bromobenzo[b]thiophene-2-yl)(morpholino)methanone]",82.5 ± 24.7,51.4 ± 10.9,–,78.4 ± 6.5
"O=C(c1cc2c(-c3ccc(F)cc3)cccc2s1)N1CCSCC1 [Example 51, (4-(4-fluorophenyl)benzo[b]thiophene-2-yl)(thiomorpholino)methanone]",2.5 ± 0.7,44.7 ± 6.3,217,–
"O=C(c1cc2c(-c3ccccc3F)cccc2s1)N1CCOCC1 [Example 30, (4-(2-fluorophenyl)benzo[b]thiophene-2-yl)(morpholino)methanone]",0.4 ± 0.1,51.0 ± 5.9,102,–
"Nc1ccc2sc(C(=O)N3CCOCC3)cc2c1 [Example 28, (5-aminobenzo[b]thiophene-2-yl)(morpholino)methanone]",73 ± 38.2,60.0 ± 8.2,–,84.3 ± 1.7
"O=C(c1cc2c(-c3ccc(F)cc3)cccc2s1)N1CCCCC1 [Example 47, (4-(4-fluorophenyl)benzo[b]thiophene-2-yl) (piperidine-1-yl)methanone]",20 ± 14.1,59.1 ± 1.6,–,89.1 ± 1.2
"Cl.O=C(c1cc2c(-c3ccc(F)cc3)cccc2s1)N1CCNCC1 [Example 38, (4-(4-fluorophenyl)benzo[b]thiophene-2-yl)(piperazine-1-yl)methanone hydrochloride]",62 ± 12,59.9 ± 0.2,–,72.4 ± 7.5
"COc1ccc2[nH]c(C(=O)N3CCOCC3)nc2c1 [Example 24, (5-methoxy-1H-benzo[d]imidazole-2-yl)(morpholino)methanone]",52 ± 17.1,76.4 ± 13.4,–,66.6 ± 9.9
"O=C(c1cc2c(-c3ccsc3)cccc2s1)N1CCOCC1 [Example 76, morpholino(4-(thiophene-3-yl)benzo[b]thiophene-2-yl)methanone]",1.5 ± 0.7,–,61.2,–
"O=C(c1cc2ccccc2o1)N1CCOCC1 [Example 15, benzofuran-2-yl(morpholino)methanone]",85.6 ± 26.7,42.7 ± 2.0,–,72.6 ± 6.8
"Fc1ccc(-c2cccc3sc(CN4CCOCC4)cc23)cc1 [Example 7, 4-((4-(4-fluorophenyl)benzo[b]thiophene-2-yl)methyl)morpholine]",87.1 ± 17.7,90.0 ± 3.3,–,63.2 ± 3.9
"O=C(c1cc2cccc(-c3ccc(F)cc3)c2s1)N1CCOCC1 [Example 65, (7-(4-fluorophenyl)benzo[b]thiophene-2-yl)(morpholino)methanone]",67,79.6 ± 5.5,–,77.8 ± 9.6
"O=C(c1nc2ccccc2[nH]1)N1CCOCC1 [Example 23, (1H-benzo[d]imidazole-2-yl)(morpholino)methanone]",69 ± 24.5,45.6 ± 3.6,–,69.2 ± 4.2
